Where two headings read alike, the source gives them in different places. *1 amine or outer side, *2 acyl side, *3 side chain or, on linkers, in order; H or OH if unused. Where a SMILES comes first, the peptide text is derived from it. Bridges are numbered along the chain shown (N, C = ends). [ ]: non-standard residue; d: D form. Ala(9-anthryl) = N[C@@H](Cc1c2ccccc2cc2ccccc12)C(=O)O; Ala(E-styryl) = N[C@@H](C/C=C/c1ccccc1)C(=O)O; Bpa = N[C@@H](Cc1ccc(C(=O)c2ccccc2)cc1)C(=O)O; X1 = O=C(C1C[C@@H]2CCCC[C@@H]2N1[*:1])[*:2]; Bta = N[C@@H](Cc1csc2ccccc12)C(=O)O; 2Pal = N[C@@H](Cc1ccccn1)C(=O)O; 3Pal = N[C@@H](Cc1cccnc1)C(=O)O; Tic = O=C(O)[C@@H]1Cc2ccccc2CN1; dTic = O=C(O)[C@H]1Cc2ccccc2CN1; 2Thi = N[C@@H](Cc1cccs1)C(=O)O; Cit = NC(=O)NCCC[C@H](N)C(=O)O; AllylGly = C=CC[C@H](N)C(=O)O; Aic = NC1(C(=O)O)Cc2ccccc2C1; Cba = N[C@@H](CC1CCC1)C(=O)O; Pen = CC(C)(S)[C@H](N)C(=O)O; hLys = NCCCCC[C@H](N)C(=O)O
Key:
hNTS1 receptor = target: T1, hNTS1 receptor (Homo sapiens, UniProt P30989); test: Competitive radioligand binding assay on the hNTS1 receptor; settings: membranes of CHO-K1 cells expressing hNTS1
T1 construct: membranes prepared from them
T1 sequence (P30989 whole entry): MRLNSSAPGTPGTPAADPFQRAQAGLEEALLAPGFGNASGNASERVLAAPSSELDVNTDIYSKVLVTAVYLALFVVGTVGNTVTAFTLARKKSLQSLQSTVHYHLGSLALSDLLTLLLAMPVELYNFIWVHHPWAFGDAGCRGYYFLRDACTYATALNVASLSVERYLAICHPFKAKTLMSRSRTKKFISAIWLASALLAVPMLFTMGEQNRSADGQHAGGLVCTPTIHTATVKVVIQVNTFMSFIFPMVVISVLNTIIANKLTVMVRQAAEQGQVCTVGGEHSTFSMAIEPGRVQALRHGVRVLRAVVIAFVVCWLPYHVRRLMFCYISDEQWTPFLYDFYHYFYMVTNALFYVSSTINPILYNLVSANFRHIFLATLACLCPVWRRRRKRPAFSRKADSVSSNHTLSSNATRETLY
Outline: (§1)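 IC50 values came from one-site competition curves against ¹²⁵I-[Tyr³]-NT after 60 min at 25 °C (pH 7.5 Tris, 0.2% BSA), with analogues at 10⁻¹¹–10⁻⁴ M and nonspecific binding set by 10⁻⁵ M NT(8-13). hNTS1 used 15 µg CHO-K1 membranes with […] tracer; hNTS2 used 50 µg 1321N1 membranes with […] tracer.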

hNTS2 receptor = target: T2, hNTS2 receptor (Homo sapiens, UniProt O95665); test: Competitive radioligand binding assay on the hNTS2 receptor; settings: for IC50: membranes of 1321N1 cells expressing hNTS2; for Selectivity: ratio IC50 for NTS1 : IC50 for NTS2
T2 construct: membranes prepared from them
T2 sequence (O95665 whole entry): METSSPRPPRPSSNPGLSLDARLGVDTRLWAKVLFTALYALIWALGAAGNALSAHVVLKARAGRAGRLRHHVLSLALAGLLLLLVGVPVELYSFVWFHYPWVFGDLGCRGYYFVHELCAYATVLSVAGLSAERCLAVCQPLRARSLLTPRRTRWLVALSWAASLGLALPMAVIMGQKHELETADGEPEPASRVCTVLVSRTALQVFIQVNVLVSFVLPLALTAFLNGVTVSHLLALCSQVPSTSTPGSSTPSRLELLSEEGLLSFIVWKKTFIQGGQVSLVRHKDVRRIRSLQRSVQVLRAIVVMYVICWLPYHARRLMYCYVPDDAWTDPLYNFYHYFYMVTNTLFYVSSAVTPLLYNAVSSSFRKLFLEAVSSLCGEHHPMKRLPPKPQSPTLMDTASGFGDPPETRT
Outline: as §1

[1] = displacement of 125I-[Tyr3]-NT, read-out: IC50 NTS1
[2] = displacement of 125I-[Tyr3]-NT, read-out: IC50 NTS2 (converted)
[3] = IC50 NTS1, displacement of 125I-[Tyr3]-NT
[4] = IC50 NTS2, displacement of 125I-[Tyr3]-NT

| Compound | IC50 (hNTS1 receptor; [1]) [µM] | IC50 (hNTS2 receptor; [2]) [µM] | Selectivity (hNTS2 receptor) | IC50 (hNTS1 receptor; [3]) [µM] | IC50 (hNTS2 receptor; [4]) [µM] |
| --- | --- | --- | --- | --- | --- |
| CC(C)C[C@H](NC(=O)[C@H](Cc1ccc(O)cc1)NC(=O)[C@@H]1CC=CC[C@H](N)C(=O)N[C@@H](CCCCN)C(=O)N[C@@H](CCCNC(N)=O)C(=O)N1)C(=O)O [compound 146, c[G(All)KcitrullineG(All)]YL] (H-[AllylGly]K[Cit][AllylGly]YL-OH; staple 1-4) | > 100 | 0.698 | 143 |  |  |
| CC(C)C[C@H](NC(=O)[C@H](Cc1ccc(O)cc1)NC(=O)[C@@H]1CC=CC[C@H](N)C(=O)N[C@@H](CCCNC(N)=O)C(=O)N[C@@H](CCCCN)C(=O)N1)C(=O)O [compound 147, c[G(All)citrullineKG(All)]YL] (H-[AllylGly][Cit]K[AllylGly]YL-OH; staple 1-4) | > 100 | 0.6 | 167 |  |  |
| CC(C)C[C@H](NC(=O)[C@H](Cc1ccc(O)cc1)NC(=O)[C@@H]1CC=CC[C@H](N)C(=O)N[C@@H](CCCNC(N)=O)C(=O)N[C@@H](CCCNC(N)=O)C(=O)N1)C(=O)O [compound 148, c[G(All)citrulline-citrullineG (All)]YL] (H-[AllylGly][Cit][Cit][AllylGly]YL-OH; staple 1-4) | > 100 | 7.9 | 13 |  |  |
| CC(C)C[C@H](NC(=O)[C@H](Cc1ccc(O)cc1)NC(=O)[C@@H]1CSSC[C@H](N)C(=O)N[C@@H](CCCCN)C(=O)N[C@@H](CCCCN)C(=O)N1)C(=O)O [compound 152, c[CKKC]YL] (H-CKKCYL-OH; disulfide 1-4) | > 1000 | 1.4 | 7 |  |  |
| CC(C)C[C@H](NC(=O)[C@H](Cc1ccc(O)cc1)NC(=O)[C@H]1NC(=O)[C@H](CCCCN)NC(=O)[C@H](CCCCN)NC(=O)[C@@H](N)CSSC1(C)C)C(=O)O [compound 153, c[CKKPen]YL] (H-CKK[Pen]YL-OH; disulfide 1-4) | > 100 | 0.0348 | 2871 |  |  |
| CC(C)C[C@H](NC(=O)[C@H](Cc1ccc(O)cc1)NC(=O)[C@@H]1CSSC(C)(C)[C@H](N)C(=O)N[C@@H](CCCCN)C(=O)N[C@@H](CCCCN)C(=O)N1)C(=O)O [compound 154, c[PenKKC]YL] (H-[Pen]KKCYL-OH; disulfide 1-4) | > 100 | 1.2 | 81 |  |  |
| CC(C)C[C@H](NC(=O)[C@H](Cc1ccc(O)cc1)NC(=O)[C@H]1NC(=O)[C@H](CCCCN)NC(=O)[C@H](CCCCN)NC(=O)[C@@H](N)C(C)(C)SSC1(C)C)C(=O)O [compound 155, c[(Pen)KK(Pen)]YL] (H-[Pen]KK[Pen]YL-OH; disulfide 1-4) | > 100 | 0.318 | 315 |  |  |
| CC(C)C[C@H](NC(=O)[C@H](Cc1ccc(O)cc1)NC(=O)[C@@H]1CC=CC[C@H](NC(=O)[C@@H](N)CCCCN)C(=O)N[C@@H](CCCCN)C(=O)N[C@@H](CCCCN)C(=O)N1)C(=O)O [compound 156, Kc[G(All)KKG(All)]YL] (H-K[AllylGly]KK[AllylGly]YL-OH; staple 2-5) | > 100 | 0.0066 | 15244 |  |  |
| CC(C)C[C@H](NC(=O)[C@H](Cc1ccc(C(=O)c2ccccc2)cc1)NC(=O)[C@@H]1CC=CC[C@H](N)C(=O)N[C@@H](CCCCN)C(=O)N[C@@H](CCCCN)C(=O)N1)C(=O)O [compound 160, c[G(All)KKG(All)]F (benzoyl)L] (H-[AllylGly]KK[AllylGly][Bpa]L-OH; staple 1-4) |  |  | 2 | > 100 | 0.115 |
| CC(C)C[C@H](NC(=O)[C@H](Cc1c2ccccc2cc2ccccc12)NC(=O)[C@@H]1CC=CC[C@H](N)C(=O)N[C@@H](CCCCN)C(=O)N[C@@H](CCCCN)C(=O)N1)C(=O)O [compound 162, c[G(All)KKG(All)]A(anthryl-) L] (H-[AllylGly]KK[AllylGly][Ala(9-anthryl)]L-OH; staple 1-4) |  |  | 5249 | > 100 | 0.0191 |
| CC(C)C[C@H](NC(=O)[C@H]1Cc2ccccc2CN1C(=O)[C@@H]1CC=CC[C@H](N)C(=O)N[C@@H](CCCCN)C(=O)N[C@@H](CCCCN)C(=O)N1)C(=O)O [compound 163, c[G(All)KKG(All)]G(Tic)L] (H-[AllylGly]KK[AllylGly][dTic]L-OH; staple 1-4) | > 100 | 10 | 10 |  |  |
| CC(C)C[C@H](NC(=O)C1(NC(=O)[C@@H]2CC=CC[C@H](N)C(=O)N[C@@H](CCCCN)C(=O)N[C@@H](CCCCN)C(=O)N2)Cc2ccccc2C1)C(=O)O [compound 164, c[G(All)KKG(All)]G(indanyl)L] (H-[AllylGly]KK[AllylGly][Aic]L-OH; staple 1-4) | > 100 | 10 | 10 |  |  |
| CC(C)C[C@H](NC(=O)C1C[C@@H]2CCCC[C@@H]2N1C(=O)[C@@H]1CC=CC[C@H](N)C(=O)N[C@@H](CCCCN)C(=O)N[C@@H](CCCCN)C(=O)N1)C(=O)O (stereo partly drawn) [compound 166, c[G(All)KKG(All)p (octahydroindol)L] (H-[AllylGly]KK[AllylGly][X1]L-OH; staple 1-4) | > 100 | 0.0333 | 3006 |  |  |
| CC(C)C[C@H](NC(=O)[C@@H]1Cc2ccccc2CN1C(=O)[C@@H]1CC=CC[C@H](N)C(=O)N[C@@H](CCCCN)C(=O)N[C@@H](CCCCN)C(=O)N1)C(=O)O [compound 167, c[G(All)KKG(All)]G(Tic)*L*] (H-[AllylGly]KK[AllylGly][Tic]L-OH; staple 1-4) | > 100 | 0.0962 | 1040 |  |  |

Second part, led by results:

| IC50 (hNTS1 receptor; [1]) [µM] | IC50 (hNTS2 receptor; [2]) [µM] | Selectivity (hNTS2 receptor) | Compound | IC50 (hNTS1 receptor; [3]) [µM] | IC50 (hNTS2 receptor; [4]) [µM] |
| --- | --- | --- | --- | --- | --- |
| > 100 | 0.276 | 362 | CC(C)C[C@H](NC(=O)[C@H](CC1CCC1)NC(=O)[C@@H]1CC=CC[C@H](N)C(=O)N[C@@H](CCCCN)C(=O)N[C@@H](CCCCN)C(=O)N1)C(=O)O [compound 143, c[G(All)KKG(All)]A (cyclobutyl)L] (H-[AllylGly]KK[AllylGly][Cba]L-OH; staple 1-4) |  |  |
| > 100 | 0.214 | 468 | CC(C)C[C@H](NC(=O)[C@H](Cc1ccc(O)cc1)NC(=O)[C@@H]1CC=CC[C@H](N)C(=O)N[C@@H](CCCCN)C(=O)N[C@@H](CCCCCN)C(=O)N1)C(=O)O [compound 149, c[G(All)KhomolysineG(All)]YL] (H-[AllylGly]K[hLys][AllylGly]YL-OH; staple 1-4) |  |  |
| > 100 | 0.187 | 533 | CC(C)C[C@H](NC(=O)[C@H](Cc1ccc(O)cc1)NC(=O)[C@@H]1CC=CC[C@H](N)C(=O)N[C@@H](CCCCCN)C(=O)N[C@@H](CCCCN)C(=O)N1)C(=O)O [compound 150, c[G(All)homolysineKG(All)]YL] (H-[AllylGly][hLys]K[AllylGly]YL-OH; staple 1-4) |  |  |
| > 100 | 0.104 | 962 | CC(C)C[C@H](NC(=O)[C@H](Cc1ccc(O)cc1)NC(=O)[C@@H]1CC=CC[C@H](N)C(=O)N[C@@H](CCCCCN)C(=O)N[C@@H](CCCCCN)C(=O)N1)C(=O)O [compound 151, c[G(All)K(homo)K (homo)G(All)]YL] (H-[AllylGly][hLys][hLys][AllylGly]YL-OH; staple 1-4) |  |  |
| > 100 | 0.09 | 1112 | CC(C)C[C@H](NC(=O)[C@H](Cc1cccs1)NC(=O)[C@@H]1CC=CC[C@H](N)C(=O)N[C@@H](CCCCN)C(=O)N[C@@H](CCCCN)C(=O)N1)C(=O)O [compound 159, c[G(All)KKG(All)]A(2-thienyl)L] (H-[AllylGly]KK[AllylGly][2Thi]L-OH; staple 1-4) |  |  |
| > 100 | 0.131 | 766 | CC(C)C[C@H](NC(=O)[C@H](C/C=C/c1ccccc1)NC(=O)[C@@H]1CC=CC[C@H](N)C(=O)N[C@@H](CCCCN)C(=O)N[C@@H](CCCCN)C(=O)N1)C(=O)O [compound 161, c[G(All)KKG(All)]A(styryl) L] (H-[AllylGly]KK[AllylGly][Ala(E-styryl)]L-OH; staple 1-4) |  |  |
| > 100 | 0.509 | 20 | CC(C)C[C@H](NC(=O)[C@H](Cc1ccccn1)NC(=O)[C@@H]1CC=CC[C@H](N)C(=O)N[C@@H](CCCCN)C(=O)N[C@@H](CCCCN)C(=O)N1)C(=O)O [compound 165, c[G(All)KKG(All)]A(2-pyridyl)L] (H-[AllylGly]KK[AllylGly][2Pal]L-OH; staple 1-4) |  |  |
| > 100 | 0.102 | 979 | CC(C)C[C@H](NC(=O)[C@H](Cc1csc2ccccc12)NC(=O)[C@@H]1CC=CC[C@H](N)C(=O)N[C@@H](CCCCN)C(=O)N[C@@H](CCCCN)C(=O)N1)C(=O)O [compound 168, c[G(All)KKG(All)]A(3-benzothienyl)L] (H-[AllylGly]KK[AllylGly][Bta]L-OH; staple 1-4) |  |  |
| > 100 | 0.234 | 427 | CC(C)C[C@H](NC(=O)[C@H](Cc1cccnc1)NC(=O)[C@@H]1CC=CC[C@H](N)C(=O)N[C@@H](CCCCN)C(=O)N[C@@H](CCCCN)C(=O)N1)C(=O)O [compound 169, c[G(All)KKG(All)]A(3-pyridyl)L] (H-[AllylGly]KK[AllylGly][3Pal]L-OH; staple 1-4) |  |  |

From patent US12358948B2, “Neurotensinergic agonists and methods of using same preventing or treating pain” (priority 2019, dated 2025)
